The nature of data set [1]: Antiadipogenic activity in mouse MC3T3-G2/PA6 cells assessed as inhibition of lipid droplet accumulation after 6 days. It counts as functional, cell-based. The settings on record: MC3T3-G2/PA6, 144 h.
Data set [2] in a line: Cytotoxicity against mouse MC3T3-G2/PA6 cells assessed as cell viability by MTT assay. It counts as cell-based. (Tetrazolium assays rely on reduction of a dye to a coloured formazan, in cell work by metabolically active cells.)
Data set [3] is described as follows: Selectivity index, ratio of CC50 for mouse MC3T3-G2/PA6 cells to IC50 for inhibition of lipid droplet accumulation in mouse MC3T3-G2/PA6 cells. It counts as functional.

Each structure is given as a SMILES string.

Turning to `C[C@@]12CC[C@@H]3[C@@]4(C)C(=O)C=C[C@@]5(C)CO[C@@H]([C@@H](O)[C@@]3(C)[C@@H]1C(=O)C[C@H]2c1ccoc1)[C@H]45` [CERAMICINE J], in data set [1], the IC50 is greater than 50 µM. For the same molecule, the CC50 in data set [2] was greater than 50 µM.

`CC(=O)O[C@H]1[C@@H](O)[C@@]2(C)C3=CC[C@@H](c4ccoc4)[C@]3(C)CC[C@@H]2[C@@]2(C)C(=O)[C@H]3O[C@H]3[C@]3(CO3)[C@H]12` [CERAMICINE E]: in data set [1], the IC50 was 44.1 µM. The CC50 in data set [2] amounted to 48.4 µM. In data set [3], the “Ratio CC50/IC50” value worked out at 1.1.

For `CCO[C@@H]1[C@@H]2OC[C@]3(C)C=CC(=O)[C@](C)([C@H]4CC[C@]5(C)C(=CC[C@H]5c5ccoc5)[C@@]41C)[C@@H]23`, the IC50 in data set [1] is 7.7 µM. Moreover, the CC50 in data set [2] was 20.6 µM. In data set [3], the “Ratio CC50/IC50” value is on record as 2.7.

As for `CC(=O)O[C@H]1C[C@H]2[C@](C)(C3=CC[C@@H](c4ccoc4)[C@@]31C)[C@H](O)[C@@H]1OC[C@]3(C)C=CC(=O)[C@@]2(C)[C@@H]13` [CERAMICINE I], the IC50 in data set [1] is 41 µM. For the same molecule, the CC50 in data set [2] is greater than 50 µM. The “Ratio CC50/IC50” value in data set [3] is recorded as greater than 1.2.

As for `C[C@]12C3=CC[C@@H](c4ccoc4)[C@]3(C)CC[C@@H]1[C@@]1(C)C(=O)C=C[C@@]3(C)CO[C@@H]([C@H]2OC(=O)c2ccccc2)[C@H]13`, in data set [1], the IC50 is greater than 50 µM. Further, in data set [2], the CC50 is greater than 50 µM.

Regarding `C[C@]12C3=CC[C@@H](c4ccoc4)[C@]3(C)CC[C@@H]1[C@@]1(C)C(=O)C=C[C@@]3(C)CO[C@@H]([C@H]2O)[C@H]13` [CERAMICINES B], the IC50 in data set [1] was found to be 1.8 µM. In data set [2], the CC50 is 15.9 µM. In addition, the “Ratio CC50/IC50” value in data set [3] is recorded as 8.8.

As to `CC(=O)O[C@@H]1[C@H]2[C@@H](O)C=CC(=O)[C@]2(C)[C@H]2CC[C@]3(C)C(=CC[C@H]3c3ccoc3)[C@]2(C)[C@@H]1O` [CERAMICINES A], the IC50 in data set [1] came to 6.2 µM. Also, the CC50 in data set [2] came out at 30.7 µM. Further, the “Ratio CC50/IC50” value in data set [3] was 5.

Regarding `C/C=C(\C)C(=O)O[C@H]1C[C@H]2[C@](C)(C3=CC[C@@H](c4ccoc4)[C@@]31C)[C@H](O)[C@@H]1OC[C@]3(C)C=CC(=O)[C@@]2(C)[C@@H]13` [CERAMICINE H], the IC50 in data set [1] is greater than 50 µM. The CC50 in data set [2] is greater than 50 µM.

In the case of `CC(=O)O[C@@H]1[C@@H]2OC[C@]3(C)C=CC(=O)[C@](C)([C@H]4CC[C@]5(C)C(=CC[C@H]5c5ccoc5)[C@@]41C)[C@@H]23`, the IC50 in data set [1] is 8.8 µM. Moreover, the CC50 in data set [2] was 26.2 µM. Moreover, the “Ratio CC50/IC50” value in data set [3] is listed as 3.

With `COCO[C@@H]1[C@@H]2OC[C@]3(C)C=CC(=O)[C@](C)([C@H]4CC[C@]5(C)C(=CC[C@H]5c5ccoc5)[C@@]41C)[C@@H]23`, the half-inhibitory concentration (IC50) in data set [1] turned out to be 8.5 µM. Further, the CC50 in data set [2] was determined as 19.7 µM. Besides, in data set [3], the “Ratio CC50/IC50” value amounted to 2.3.

In the case of `C[C@]12C3=CC[C@@H](c4ccoc4)[C@]3(C)CC[C@@H]1[C@@]1(C)C(=O)C=C[C@@]3(C)CO[C@@H]([C@H]2OC(=O)c2ccncc2)[C@H]13`, in data set [1], the IC50 amounted to 18.7 µM. Besides, the CC50 in data set [2] worked out at 17.2 µM. Also, the “Ratio CC50/IC50” value in data set [3] came to 0.9.

Regarding `C[C@]12C3=CC[C@@H](c4ccoc4)[C@]3(C)CC[C@@H]1[C@@]1(C)C(=O)C=C[C@@]3(C)CO[C@@H]([C@H]2OC(=O)C(F)(F)F)[C@H]13`, in data set [1], the IC50 amounted to 7.3 µM. The CC50 in data set [2] was determined as 13.7 µM. Moreover, the “Ratio CC50/IC50” value in data set [3] turned out to be 1.9.

Consider `CC(=O)O[C@H]1C=CC(=O)[C@@]2(C)[C@H]1[C@@H](O)[C@@H](O)[C@@]1(C)C3=CC[C@@H](c4ccoc4)[C@]3(C)CC[C@H]21` [CERAMICINE K], for which, in data set [1], the IC50 is greater than 50 µM. In data set [2], the CC50 was greater than 50 µM.

As to `C[C@]12C3=CC[C@@H](c4ccoc4)[C@]3(C)CC[C@@H]1[C@@]1(C)C(=O)C=C[C@@](C)(O)[C@@H]1[C@@H](O)[C@H]2O` [CERAMICINE L], the IC50 in data set [1] is greater than 50 µM. The CC50 in data set [2] is greater than 50 µM.

For `C[C@@]12C(=O)C=C[C@@]3(C)COC(=C[C@@]4(C)C5=CC[C@@H](c6ccoc6)[C@]5(C)CC[C@H]14)[C@H]23`, the IC50 in data set [1] came out at 29.5 µM. Moreover, in data set [2], the CC50 was greater than 50 µM. For the same molecule, the “Ratio CC50/IC50” value in data set [3] is given as greater than 1.7.

Take `C=C(C)C(=O)O[C@H]1C[C@H]2[C@](C)(C3=CC[C@@H](c4ccoc4)[C@@]31C)[C@H](O)[C@@H]1OC[C@]3(C)C=CC(=O)[C@@]2(C)[C@@H]13` [CERAMICINES C]: the IC50 in data set [1] came out at 19.1 µM. Besides, the CC50 in data set [2] worked out at 21.9 µM. In data set [3], the “Ratio CC50/IC50” value is recorded as 1.2.

For the molecule `C[C@@]1(C=O)C=CC(=O)[C@]2(C)[C@H]3CC[C@]4(C)C(=CC[C@H]4c4ccoc4)[C@]3(C)[C@H](O)[C@H](O)[C@@H]12` [CERAMICINE F], the half-inhibitory concentration (IC50) in data set [1] turned out to be 22.4 µM. The CC50 in data set [2] is 25 µM. Also, the “Ratio CC50/IC50” value in data set [3] is recorded as 1.1.

On to `COC(=O)[C@]1(C)C=CC(=O)[C@]2(C)[C@H]3CC[C@]4(C)C(=CC[C@H]4c4ccoc4)[C@]3(C)[C@H](O)[C@H](O)[C@H]21` [CERAMICINE G], for which, in data set [1], the IC50 is 38.4 µM. Further, the CC50 in data set [2] was 72.9 µM. The “Ratio CC50/IC50” value in data set [3] is given as 1.9.

Turning to `C[C@]12CCC(=O)[C@]3(C)[C@H]4CC[C@]5(C)C(=CCC5C5CCOC5)[C@]4(C)[C@H](O)[C@H](OC1)[C@@H]23` (stereo partly specified), the IC50 in data set [1] is greater than 50 µM. Moreover, in data set [2], the CC50 was greater than 50 µM.

As to `C[C@@]12CCC(O)[C@@]3(C)[C@H]1[C@@H](OC2)[C@@H](O)[C@@]1(C)C2=CC[C@@H](c4ccoc4)[C@]2(C)CC[C@@H]13` (stereo partly specified), in data set [1], the IC50 is 20.8 µM. For the same molecule, in data set [2], the CC50 was greater than 50 µM. Moreover, the “Ratio CC50/IC50” value in data set [3] is greater than 2.4.

With `C[C@]12C3=CC[C@@H](C4=CCOC4=O)[C@]3(C)CC[C@@H]1[C@@]1(C)C(=O)C=C[C@@]3(C)CO[C@@H]([C@H]2O)[C@H]13` [CERAMICINES D], the IC50 in data set [1] was greater than 50 µM. Also, in data set [2], the CC50 is greater than 50 µM.

A word on the IC50: it is the point on the concentration scale where inhibition reaches its midpoint. In general, CC50 refers to the concentration at which the toxic effect on the cells reaches its halfway point.

The record behind these values is ChEMBL document CHEMBL2331359, “Ceramicines from Chisocheton ceramicus as lipid-droplets accumulation inhibitors” (Bioorg Med Chem Lett, 2013).
